Experimental findings from patent US20060264460A1 (Wyeth, priority 2005, published 2006) are described below.

Structures are written as SMILES. A value given as a limit tells only on which side of the number the result lay.

In this experiment the target is T1, human Cot/Tpl2 kinase (Homo sapiens, UniProt P41279).
T1 construct: human Cot/Tpl2 kinase construct encoding residues 30-398; 6His (N); made in house; host or cells: Sf9 insect cells, baculovirus system (BD Biosciences)
T1 sequence (P41279 30-398): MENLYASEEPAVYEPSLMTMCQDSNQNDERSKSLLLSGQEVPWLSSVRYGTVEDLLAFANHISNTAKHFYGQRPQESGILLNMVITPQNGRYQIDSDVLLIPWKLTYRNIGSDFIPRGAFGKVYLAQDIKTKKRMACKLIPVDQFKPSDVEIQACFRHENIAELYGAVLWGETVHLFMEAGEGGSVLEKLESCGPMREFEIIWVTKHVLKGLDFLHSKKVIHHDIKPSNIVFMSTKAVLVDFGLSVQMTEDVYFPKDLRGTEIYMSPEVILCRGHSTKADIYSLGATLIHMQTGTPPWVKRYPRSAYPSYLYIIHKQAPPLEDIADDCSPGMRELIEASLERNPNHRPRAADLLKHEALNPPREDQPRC
The experiment is described as follows: Tpl2/Cot kinase assay: GST-MEK1 phosphorylation detected by ELISA (DELFIA Eu). The class given is biochemical. Particulars: Tpl2/Cot kinase, GST-MEK1 substrate, 50 uM ATP. The procedure, abridged:
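His-tagged human Tpl2 from Sf9 cells, Ni-affinity and size-exclusion purified (monomer). 0.4 nM Tpl2 with 35 nM GST-MEK1, 50 uM ATP, MOPS pH 7.2, 1% DMSO, 1 h at 30° C; EDTA stop. MEK1 Ser217/221 phosphorylation detected by anti-phospho-MEK1 and Eu-labelled secondary ELISA; IC50 fitted.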
For orientation: ELISA stands for enzyme-linked immunosorbent assay.
Turning to `CC(C)(C)CN1CCC(n2cc(CNc3cc(Br)c4ncc(C#N)c(Nc5ccc(F)c(Cl)c5)c4c3)nn2)CC1` [Example 715], inhibition was half-maximal at 0.19 µM (IC50). That is a sub-micromolar value.
To `CC(C)(C)OC(=O)N1CCCC1Cn1cc(CNc2cc(Cl)c3ncc(C#N)c(Nc4ccc(F)c(Cl)c4)c3c2)nn1` (stereo not shown) [Example 716] belongs 0.32 µM; to `CC(C)(C)OC(=O)N1CCCC1Cn1cc(CNc2cc(Br)c3ncc(C#N)c(Nc4ccc(F)c(Cl)c4)c3c2)nn1` (stereo not shown) [Example 717], 0.27 µM.
The figure for `N#Cc1cnc2c(Br)cc(NCc3cn(CC4CCCNC4)nn3)cc2c1Nc1ccc(F)c(Cl)c1` (stereo not shown) [Example 718] is 0.033 µM.
The figure for `N#Cc1cnc2c(Cl)cc(NCc3cn(CC4CCCNC4)nn3)cc2c1Nc1ccc(F)c(Cl)c1` (stereo not shown) [Example 719] is 0.048 µM.
On to `CC(=O)N1CCC(n2cc(CNc3cc(Br)c4ncc(C#N)c(Nc5ccc(F)c(Cl)c5)c4c3)nn2)CC1` [Example 720], for which the midpoint of inhibition, the IC50, lay at 0.0061 µM.
The molecule `N#Cc1cnc2c(Cl)cc(NCc3cn(CC4CCCN4)nn3)cc2c1Nc1ccc(F)c(Cl)c1` (stereo not shown) [Example 721] registered an IC50 of 0.0091 µM.
The figure for `N#Cc1cnc2c(Br)cc(NCc3cn(CC4CCCN4)nn3)cc2c1Nc1ccc(F)c(Cl)c1` (stereo not shown) [Example 722] is 0.0092 µM; for `N#Cc1cnc2c(Br)cc(NCc3cc([C@@H]4CCCN4)n[nH]3)cc2c1Nc1ccc(F)c(Cl)c1` [Example 724] it is 0.33 µM; for `N#Cc1cnc2c(Br)cc(NCc3cn(-c4ccncc4)cn3)cc2c1Nc1ccc(F)c(Cl)c1` [Example 725] it is 0.023 µM.
The figure for `N#Cc1cnc2c(Cl)cc(NCc3cn(Cc4cccnc4)cn3)cc2c1Nc1ccc(F)c(Cl)c1` [Example 726] is 0.007 µM.
`N#Cc1cnc2c(Br)cc(NCc3cn(CCc4ccccn4)nn3)cc2c1Nc1ccc(F)c(Cl)c1` [Example 728] displayed a half-maximal inhibitory concentration (IC50) of 0.0034 µM. Compared with the last molecule, the IC50 is about 2.1-fold lower.
`N#Cc1cnc2c(Br)cc(NCc3cn(-c4ccncc4)nn3)cc2c1Nc1ccc(F)c(Cl)c1` [Example 729]: the IC50 was 0.0055 µM.
The figure for `C=CCn1cc(CNc2cc(Br)c3ncc(C#N)c(Nc4ccc(F)c(Cl)c4)c3c2)nn1` [Example 732] is 0.02 µM; for `COCCn1cc(CNc2cc(Cl)c3ncc(C#N)c(Nc4ccc(F)c(Cl)c4)c3c2)nn1` [Example 733] it is 0.02 µM.
`N#Cc1cnc2c(Cl)cc(NCc3cn(C4CCOCC4)nn3)cc2c1Nc1ccc(F)c(Cl)c1` [Example 734] showed an IC50 of 0.014 µM.
For the molecule `CCN1CCC(Cn2cc(CNc3cc(Br)c4ncc(C#N)c(Nc5ccc(F)c(Cl)c5)c4c3)nn2)CC1` [Example 735], the IC50 worked out at 0.04 µM.
Molecule `CC(C)N1CCC(Cn2cc(CNc3cc(Br)c4ncc(C#N)c(Nc5ccc(F)c(Cl)c5)c4c3)nn2)CC1` [Example 736] yielded an IC50 of 0.029 µM.
Molecule `CCN1CCC(CCn2cc(CNc3cc(Br)c4ncc(C#N)c(Nc5ccc(F)c(Cl)c5)c4c3)nn2)CC1` [Example 737] registered an IC50 of 0.064 µM.
To `CC(C)N1CCC(CCn2cc(CNc3cc(Br)c4ncc(C#N)c(Nc5ccc(F)c(Cl)c5)c4c3)nn2)CC1` [Example 738] belongs 0.057 µM; to `CN(C)CC(c1ccccc1)n1cc(CNc2cc(Br)c3ncc(C#N)c(Nc4ccc(F)c(Cl)c4)c3c2)nn1` (stereo not shown) [Example 739], 0.093 µM; to `CN(C)CC(c1ccccc1)n1cc(CNc2cc(Cl)c3ncc(C#N)c(Nc4ccc(F)c(Cl)c4)c3c2)nn1` (stereo not shown) [Example 740], 0.07 µM.
The figure for `N#Cc1cnc2c(Br)cc(NCc3cn(CCOCCOCCO)nn3)cc2c1Nc1ccc(F)c(Cl)c1` [Example 741] is 0.14 µM.
To `N#Cc1cnc2c(Cl)cc(NCc3cn(CCOCCOCCO)nn3)cc2c1Nc1ccc(F)c(Cl)c1` [Example 742] belongs 0.091 µM; to `COCCOCCn1cc(CNc2cc(Br)c3ncc(C#N)c(Nc4ccc(F)c(Cl)c4)c3c2)nn1` [Example 743], 0.1 µM.
`COCCOCCn1cc(CNc2cc(Cl)c3ncc(C#N)c(Nc4ccc(F)c(Cl)c4)c3c2)nn1` [Example 744] came in with a concentration for half-maximal inhibition (IC50) of 0.021 µM.
Regarding `CN(C)CCc1nc[nH]c1CNc1cc(Br)c2ncc(C#N)c(Nc3ccc(F)c(Cl)c3)c2c1` [Example 745], the IC50 was determined as 0.24 µM. Against the preceding molecule, the IC50 is about 11-fold higher.
The figure for `N#Cc1cnc2c(Cl)cc(NCc3cn(CCc4ccccn4)nn3)cc2c1Nc1ccc(F)c(Cl)c1` [Example 746] is 0.025 µM.
To `N#Cc1cnc2c(Cl)cc(NCc3cn(-c4ccnc(N5CCCCC5)n4)nn3)cc2c1Nc1ccc(F)c(Cl)c1` [Example 747] belongs 0.32 µM; to `N#Cc1cnc2c(Br)cc(NCc3cn(-c4cc[n+]([O-])cc4)nn3)cc2c1Nc1ccc(F)c(Cl)c1` [Example 748], 0.015 µM; to `N#Cc1cnc2c(Cl)cc(NCc3cn(-c4cc[n+]([O-])cc4)nn3)cc2c1Nc1ccc(F)c(Cl)c1` [Example 749], 0.016 µM.
The figure for `CN(C)C(=O)OCCCn1cc(CNc2cc(Cl)c3ncc(C#N)c(Nc4ccc(F)c(Cl)c4)c3c2)nn1` [Example 750] is 0.016 µM.
Take `N#Cc1cnc2c(Cl)cc(NCc3cn(CCCO)nn3)cc2c1Nc1ccc(F)c(Cl)c1` [Example 751]: the midpoint of inhibition, the IC50, lay at 0.0036 µM. This IC50 is about 4.4-fold lower than that of the molecule before.
Molecule `CN(C)C(=O)OCCCn1cc(CNc2cc(Br)c3ncc(C#N)c(Nc4ccc(F)c(Cl)c4)c3c2)nn1` [Example 752] came in with an IC50 of 0.0035 µM.
The figure for `N#Cc1cnc2c(Br)cc(NCc3cn(Cc4ccccn4)nn3)cc2c1Nc1ccc(F)c(Cl)c1` [Example 753] is 0.033 µM.
The figure for `N#Cc1cnc2c(Cl)cc(NCc3cn(CC4CCCCC4)nn3)cc2c1Nc1ccc(F)c(Cl)c1` [Example 755] is 0.79 µM; for `N#Cc1cnc2c(Cl)cc(NCc3cn(Cc4ccc(C(F)(F)F)cc4)nn3)cc2c1Nc1ccc(F)c(Cl)c1` [Example 756] it is more than 3 µM.
The figure for `CN(C)CCC(c1cccnc1)n1cc(CNc2cc(Br)c3ncc(C#N)c(Nc4ccc(F)c(Cl)c4)c3c2)nn1` (stereo not shown) [Example 757] is 0.0067 µM.
`CN(C)CCC(c1cccnc1)n1cc(CNc2cc(Cl)c3ncc(C#N)c(Nc4ccc(F)c(Cl)c4)c3c2)nn1` (stereo not shown) [Example 759] returned an IC50 of 0.036 µM.
Turning to `COC(=O)c1cc(Cl)c2ncc(C#N)c(Nc3ccc(F)c(Cl)c3)c2c1` [Example 760], the IC50 is more than 3 µM.
The figure for `CC(c1ccccc1)n1cc(CNc2cc(Cl)c3ncc(C#N)c(Nc4ccc(F)c(Cl)c4)c3c2)nn1` (stereo not shown) [Example 761] is 0.096 µM; for `CC(C)(C)OC(=O)N1CCCN(CCCn2cc(CNc3cc(Br)c4ncc(C#N)c(Nc5ccc(F)c(Cl)c5)c4c3)nn2)CC1` [Example 762] it is 0.52 µM.
The figure for `CC(C)(C)OC(=O)N1CCCN(CCCn2cc(CNc3cc(Cl)c4ncc(C#N)c(Nc5ccc(F)c(Cl)c5)c4c3)nn2)CC1` [Example 763] is 0.12 µM.
To `CC(C)(C)OC(=O)N1CCN(CCCn2cc(CNc3cc(Br)c4ncc(C#N)c(Nc5ccc(F)c(Cl)c5)c4c3)nn2)CC1` [Example 764] belongs 1.3 µM; to `CC(C)(C)OC(=O)N1CCN(CCCn2cc(CNc3cc(Cl)c4ncc(C#N)c(Nc5ccc(F)c(Cl)c5)c4c3)nn2)CC1` [Example 765], 0.23 µM.
In the case of `N#Cc1cnc2c(Br)cc(NCc3cn(CCCN4CCCNCC4)nn3)cc2c1Nc1ccc(F)c(Cl)c1` [Example 766], the IC50 was found to be 0.043 µM.
On to `N#Cc1cnc2c(Cl)cc(NCc3cn(CCCN4CCCNCC4)nn3)cc2c1Nc1ccc(F)c(Cl)c1` [Example 767], for which half-maximal inhibition (IC50) was put at 0.074 µM.
To `N#Cc1cnc2c(Br)cc(NCc3cn(CCCN4CCNCC4)nn3)cc2c1Nc1ccc(F)c(Cl)c1` [Example 768] belongs 0.11 µM.
The figure for `N#Cc1cnc2c(Cl)cc(NCc3cn(CCCN4CCNCC4)nn3)cc2c1Nc1ccc(F)c(Cl)c1` [Example 769] is 0.16 µM; for `N#Cc1cnc2c(Cl)cc(C(=O)O)cc2c1Nc1ccc(F)c(Cl)c1` [Example 770] it is 2.4 µM; for `N#Cc1cnc2c(Cl)cc(NCC(=O)NCc3cccnc3)cc2c1Nc1ccc(F)c(Cl)c1` [Example 771] it is 0.2 µM.
The figure for `N#Cc1cnc2c(Cl)cc(NCC(=O)NCc3ccncc3)cc2c1Nc1ccc(F)c(Cl)c1` [Example 772] is 0.048 µM; for `N#Cc1cnc2c(Cl)cc(NCC(=O)Nc3cccnc3)cc2c1Nc1ccc(F)c(Cl)c1` [Example 773] it is 0.11 µM.
Consider `N#Cc1cnc2c(Cl)cc(NCC(=O)Nc3ccncc3)cc2c1Nc1ccc(F)c(Cl)c1` [Example 774], for which the IC50 is 2.4 µM.
The figure for `CN(C)CCCNC(=O)CNc1cc(Cl)c2ncc(C#N)c(Nc3ccc(F)c(Cl)c3)c2c1` [Example 775] is more than 3 µM; for `N#Cc1cnc2c(Cl)cc(NCC(=O)NCCCN3CCOCC3)cc2c1Nc1ccc(F)c(Cl)c1` [Example 776] it is more than 3 µM; for `N#Cc1cnc2c(Cl)cc(NCC(=O)NCCN3CCOCC3)cc2c1Nc1ccc(F)c(Cl)c1` [Example 777] it is 0.53 µM.
Consider `CN(C)CCNC(=O)CNc1cc(Cl)c2ncc(C#N)c(Nc3ccc(F)c(Cl)c3)c2c1` [Example 778], for which it took 1.6 µM to reach half-maximal inhibition (IC50). This IC50 lies about 3-fold higher than the previous one.
The figure for `COCCCNC(=O)CNc1cc(Cl)c2ncc(C#N)c(Nc3ccc(F)c(Cl)c3)c2c1` [Example 779] is 0.23 µM; for `N#Cc1cnc2c(Cl)cc(NCC(=O)NCc3ccccn3)cc2c1Nc1ccc(F)c(Cl)c1` [Example 780] it is 0.33 µM.
The figure for `CN1CCCC1CCNC(=O)CNc1cc(Cl)c2ncc(C#N)c(Nc3ccc(F)c(Cl)c3)c2c1` (stereo not shown) [Example 781] is more than 3 µM; for `N#Cc1cnc2c(Cl)cc(NC3CCCC3Cl)cc2c1Nc1ccc(F)c(Cl)c1` (stereo not shown) [Example 782] it is more than 3 µM.
The figure for `N#Cc1cnc2c(Cl)cc(NCc3cn(CCOC(N)=O)nn3)cc2c1Nc1ccc(F)c(Cl)c1` [Example 784] is 0.0059 µM; for `N#Cc1cnc2c(Br)cc(NCc3cn(Cc4ccccn4)cn3)cc2c1Nc1ccc(F)c(Cl)c1` [Example 785] it is 0.034 µM.

As a reminder, the IC50 is the concentration needed to halve the response being measured. Higher therefore signals a need for much substance.
